In the oligonucleotide strings, read from the 5' end, every base follows the letter of its sugar. An asterisk marks phosphorothioate; unmarked linkages are phosphodiester. Other units and linkages are bracketed, terminal groups are in braces. A string of capitals states the bases alone. e = 2'-O-(2-methoxyethyl) (MOE); [5mC] = 5-methylcytosine; d = 2'-deoxy (DNA)

The values below come from patent US8178506B2, “Oligomeric compounds and compositions for use in modulation of small non-coding RNAs” (Regulus Therapeutics Inc., priority 2003, dated 2012).

Common to all, as to assay type: cell-based, mouse
One data set concerns IL-6 mRNA. In words: IL-6 mRNA in LPS-activated primary murine macrophages. The settings on record: for IL-6 mRNA expression, % UTC: average of 3 treatments; for IL-6 expression: IFN-gamma-stimulated and unstimulated cells, 75-600 nM. On the procedure:
(§1) To investigate the role of miRNAs in the immune response, oligomeric compounds of the present invention targeting miRNAs were tested for their effects upon lipopolysaccharide (LPS)-activated primary murine macrophages. Macrophages participate in the immune response, for example, in the recognition and phagocytosis of microorganisms, including bacteria. Interferon-gamma (IFN-gamma) released by helper T cells is one type of signal required for macrophage activation, and LPS can serve as an additional stimulus. LPS is a component of the gram-negative bacterial cell wall and acts as an agonist for toll-like receptor 4 (TLR4), the primary LPS receptor expressed by macrophages. The proinflammatory cytokines interleukin-12 (IL-12) and interleukin-6 (IL-6) are induced by LPS treatment of macrophages, thus the expression of the mRNAs encoding these cytokines was used to evaluate the response of macrophages to LPS following treatment with oligomeric compounds targeting miRNAs.
(§2) Macrophages were isolated as follows. Female C57B1/6 mice (Charles River Laboratories, Wilmington, Mass.) were injected intraperitoneally with 1 ml 3% thioglycollate broth (Sigma-Aldrich, St. Louis, Mo.), and peritoneal macrophage cells were isolated by peritoneal lavage 4 days later. The cells were plated in 96-well plates at 40,000 cells/well for one hour in serum-free RPMI adjusted to contain 10 mM HEPES (Invitrogen Life Technologies, Carlsbad, Calif.), allowed to adhere, then non-adherent cells were washed away and the media was replaced with RPMI containing 10 mM HEPES, 10% FBS and penicillin/streptomycin (“complete” RPMI; Invitrogen Life Technologies, Carlsbad, Calif.).
(§3) Oligomeric compounds were introduced into the cells using the non-liposomal transfection reagent FuGENE 6 Transfection Reagent (Roche Diagnostics Corp., Indianapolis, Ind.). Oligomeric compound was mixed with FuGENE 6 in 1 mL of serum-free RPMI to achieve a concentration of 10 μL FuGENE per 1000 nM oligomeric compound. The oligomeric compound/FuGENE complex was allowed to form at room temperature for 20 minutes. This mixture was diluted to the desired concentration of oligomeric compound by the addition of the appropriate volume of complete RPMI. The final ratio of FuGENE 6 to oligomeric compound was 1 μL of FuGENE 6 per 100 nM oligomeric compound. A volume of 100 μL of oligomeric compound/FuGENE/RPMI was added to each well of the 96-well plate in which the macrophages were cultured. Each oligomeric compound treatment was repeated in triplicate.
(§4) Following oligomeric compound treatment, cells were stimultated with LPS. Cells were cultured in the presence of the transfection complex for approximately 24 to 28 hours at 37° C. and 5% CO2, after which the medium containing the transfection complex was removed from the cells, and complete RPMI containing 100 ng/mL LPS (Sigma-Aldrich Corp., St. Louis, Mo.) was added to the cells for a period of approximately 24 hours. Control samples included (1) cells receiving no oligomeric compound, stimulated with LPS and (2) cells receiving neither oligomeric compound nor LPS treatment.
(§5) In another embodiment, following oligomeric compound treatment, cells were first activated by IFN-gamma, to amplify the response to LPS. Cells were cultured in the presence of the transfection complex for approximately 24 hours at 37° C. and 5% CO2, at which point the medium containing the transfection complex was removed from the cells, and complete RPMI containing 100 ng/mL recombinant mouse IFN-gamma (R&D Systems, Minneapolis, Minn.) was added to the cells. After the 4 hour treatment with INF-gamma, cells were treated with 100 ng/mL LPS for approximately 24 hours. Control samples included (1) cells receiving no oligomeric compound, stimulated with LPS and (2) cells receiving neither oligomeric compound nor LPS treatment. […]

The subject of a further data set is IL-12 mRNA. In words: IL-12 mRNA in LPS-activated primary murine macrophages. The settings on record: for IL-12 mRNA expression, % UTC: LPS, average of 3 treatments; for IL-12 mRNA expression, +IFN % UTC: 300 nM oligomeric compound, stimulation with IFN-gamma and LPS, average of 2 experiments. On the procedure:
as §1, §2, §3, §4, §5

The test system of a further data set is B16-F10 cells. In words: Cell cycle assay in B16-F10 cells. The conditions noted are these: 150 nM, 48 hours, relative to untreated control. On the procedure:
BJ cells were routinely cultured in MEM high glucose with 2 mM L-glutamine and Earle's BSS adjusted to contain 1.5 g/L sodium bicarbonate and supplemented with 10% fetal bovine serum, 0.1 mM non-essential amino acids and 1.0 mM sodium pyruvate (all media and supplements from Invitrogen Life Technologies, Carlsbad, Calif.). B16-F10 cells were routinely cultured in DMEM high glucose (Invitrogen Life Technologies, Carlsbad, Calif.) supplemented with 10% fetal bovine serum (Invitrogen Life Technologies, Carlsbad, Calif.). T47D cells were cultured in DMEM High glucose media (Invitrogen Life Technologies, Carlsbad, Calif.) supplemented with 10% fetal bovine serum. […] Cells were plated on collagen-coated 24-well plates (Falcon-Primaria #3047, BD Biosciences, Bedford, Mass.) at approximately 50,000 cells per well and allowed to attach to wells overnight.
In further studies, additional cell lines were treated with oligomeric compounds targeted against miRNAs to assess the effects of each oligomeric compound on cell cycling. BJ, B16, T47D, and HeLa cells were cultured and transfected as described above. […] T47Dp53 cells are T47D cells that have been transfected with and selected for maintenance of a plasmid that expresses a wildtype copy of the p53 gene (for example, pCMV-p53; Clontech, Palo Alto, Calif.), using standard laboratory procedures. BJ cells were treated with 200 nM of each oligomeric compound, and T47D, T47Dp53, HeLa, and B16 cells were treated with 150 nM of each oligomeric compound. The human foreskin fibroblast BJ cell line represents a non-cancer cell line, while HeLa, T47D, T47Dp53 cells and the mouse melanoma cell line B16-F10 represent cancerous cell lines. For comparison, oligomeric compounds ISIS 183891 (SEQ ID NO: 847) and ISIS 285717 ([…]; herein incorporated as SEQ ID NO: 857), both targeting the kinesin-like 1/Eg5 mRNA, involved in cell cycling, were used as positive controls. The random-mer ISIS 29848 was used as a negative control. Additionally, the oligomeric compounds ISIS Number 25690 ([…]; herein incorporated as SEQ ID NO: 858) and ISIS Number 25691 ([…]; herein incorporated as SEQ ID NO: 859), targeted to nucleotides 3051-3070 and 3085-3104, respectively, of the mRNA encoding the Drosha RNase III (GenBank Accession NM_013235.2, incorporated herein as SEQ ID NO: 860) were also tested. ISIS Number 25690 and ISIS Number 25691 are 5-10-52′-MOE gapmer compounds, 20 nucleotides in length, with phosphorothioate internucleoside linkages throughout the oligomeric compound. All cytidine residues are 5-methylcytidines. Transfections were performed using the methods described herein. Cells were prepared for flow cytometry 48-hours after oligonucleotide treatment. Results of these studies are shown in Table 35, where data are expressed as percentage of cells in each phase relative to the untreated control cells in that phase.

[1] abbreviates: normalized to LPS-treated cells without oligomeric compound.

For the substance “289606 (antisense CCUUCCCUGAAGGUUCCUCC; all 2'-MOE, all C 5-methyl, all phosphorothioate, T or U not given here) [compound 289606]”, the “IL-6 mRNA expression, % UTC” value with IL-6 mRNA (75 nM, +IFN) stood at 78 % UTC; with IL-6 mRNA (75 nM, −IFN) it was 77 % UTC; in the data set on IL-6 mRNA (150 nM, +IFN) it was 69 % UTC; in the data set with IL-6 mRNA (150 nM, −IFN), 68 % UTC; with IL-6 mRNA (300 nM, +IFN) it was 70 % UTC; in the data set on IL-6 mRNA (300 nM, −IFN) it was 65 % UTC. In addition, the “IL-6 mRNA expression, % UTC” value with IL-6 mRNA (600 nM, +IFN) came out at 59 % UTC; with IL-6 mRNA (600 nM, −IFN), 77 % UTC. In addition, the “IL-12 mRNA expression, % UTC” value in the data set with IL-12 mRNA (75 nM, +IFN) was 59 % UTC; with IL-12 mRNA (75 nM, −IFN), 89 % UTC; with IL-12 mRNA (150 nM, +IFN), 46 % UTC; with IL-12 mRNA (150 nM, −IFN), 99 % UTC; in the data set on IL-12 mRNA (300 nM, +IFN) it was 52 % UTC; in the data set with IL-12 mRNA (300 nM, −IFN), 80 % UTC. Moreover, the “IL-12 mRNA expression, % UTC” value in the data set with IL-12 mRNA (600 nM, +IFN) came out at 66 % UTC; in the data set with IL-12 mRNA (600 nM, −IFN) it was 98 % UTC. In addition, the “IL-12 mRNA expression, +IFN % UTC” value with IL-12 mRNA (setting [1]) stood at 129 % UTC.

Regarding “229927 (antisense e[5mC]*e[5mC]*eA*e[5mC]*eA*dT*dT*dG*dA*dG*dT*dT*dT*d[5mC]*dT*eT*eT*eA*eA*eG) [compound 229927]”, the “IL-6 mRNA expression, % UTC” value was 54 % UTC in the data set on IL-6 mRNA (75 nM, +IFN); 57 % UTC in the data set on IL-6 mRNA (75 nM, −IFN); 39 % UTC in the data set with IL-6 mRNA (150 nM, +IFN); 52 % UTC with IL-6 mRNA (150 nM, −IFN); 40 % UTC with IL-6 mRNA (300 nM, +IFN); 44 % UTC in the data set with IL-6 mRNA (300 nM, −IFN). In addition, the “IL-6 mRNA expression, % UTC” value was 69 % UTC in the data set on IL-6 mRNA (600 nM, +IFN) and 104 % UTC with IL-6 mRNA (600 nM, −IFN). For the same substance, the “IL-12 mRNA expression, % UTC” value in the data set with IL-12 mRNA (75 nM, +IFN) is 46 % UTC; with IL-12 mRNA (75 nM, −IFN) it was 67 % UTC; with IL-12 mRNA (150 nM, +IFN), 35 % UTC; with IL-12 mRNA (150 nM, −IFN), 53 % UTC; with IL-12 mRNA (300 nM, +IFN) it was 16 % UTC; in the data set on IL-12 mRNA (300 nM, −IFN), 45 % UTC. Besides, the “IL-12 mRNA expression, % UTC” value in the data set on IL-12 mRNA (600 nM, +IFN) amounted to 8 % UTC; with IL-12 mRNA (600 nM, −IFN), 46 % UTC. Also, in the data set on IL-12 mRNA (300 nM oligomeric compound and LPS, no IFN-gamma pretreatment, single experiment, normalized to LPS-treated cells without oligomeric compound), the “IL-12 mRNA expression, −IFN % UTC” value is 92 % UTC. In the data set on IL-12 mRNA (setting [1]), the “IL-12 mRNA expression, +IFN % UTC” value turned out to be 145 % UTC.

In the case of “285717 (antisense TCGGTTCTTTCCAAGGCTGA; chemistry not given here) [compound 285717]”, in the data set on B16-F10 cells, the “% cells in cell cycle phase G1” value is on record as 72%, the “% cells in cell cycle phase G2/M” value came to 220%, the “% cells in cell cycle phase S” value stood at 78% and the “% cells in cell cycle phase aneuploid” value worked out at 178%. Moreover, the “% cells in cell cycle phase subG1” value in the data set with B16-F10 cells worked out at 627%.

“CTTCCAGTCGGGGATGTTTACA (anti-miR; chemistry not fully specified) [ISIS 327921, uniform 2′-MOE PS; targets mir-30d]”: in the data set with IL-6 mRNA, the IL-6 expression result was “increased in a dose-dependent manner”. For the same substance, the “IL-12 expression, % of the control” value with IL-12 mRNA (IFN-gamma then LPS, 75 nM) worked out at 14%. The “IL-12 expression, % of the untreated control” value in the data set on IL-12 mRNA (IFN-gamma then LPS, all other doses (150, 300, 600 nM)) is given as “less than 10%”. The “IL-12 expression, percentage of untreated control” value in the data set on IL-12 mRNA (LPS alone, 75, 150, 300 and 600 nM) is reported as at least 53%. Besides, the “IL-12 mRNA expression” value in the data set on IL-12 mRNA (LPS-stimulated primary murine macrophages) is recorded as “inhibited IL-12 mRNA expression in a dose-dependent manner”.

As for “AACCCACCGACAGCAATGAATGTT (chemistry not given here) [ISIS 327941, uniform 2′-MOE PS; targets mir-181b]”, the IL-6 expression result with IL-6 mRNA was “increased in a dose-dependent manner”. Further, the “IL-12 mRNA expression, % of the untreated control” value in the data set with IL-12 mRNA (IFN-gamma then LPS, all doses) is “less than 5%”.
